Laboratory results taken from paper PMC8748687 (Nature Communications, 2022).

Tests used:
[1] = target: TCR YLQ7; type: binding, human; details: for Kd: read-out: KD of TCR YLQ7 for peptide–HLA-A2
[2] = target: TCR RLQ3; type: binding, human; details: read-out: KD of TCR RLQ3 for peptide–HLA-A2

Sequence | Kd [1] [µM] | Kd [2] [µM] | other results
KLQPLTFLL [MERS-KLQ] | > 50 | – | –
PLSKRQYLL [HKU1-PLS] | > 50 | – | –
PLTSRQYLL [OC43-PLT] | > 50 | – | –
RLAALNAFV [NL63-RLA] | – | > 100 | –
RLAALNVFV [229E-RLA] | – | > 100 | –
RLTALNAYV [HKU1-RLT] | – | > 100 | –
RLTTLNAFV [MERS-RLT] | – | > 100 | –
YLAPRTFML [GD_pangolin YLQ ortholog] | – | – | Measured TCR ΔΔG, YLQ7 [1]: 1.7 kcal/mol
YLKPTTFML [SARS-YLK] | > 50 | – | –
